Source: PMC8486872, “A rational blueprint for the design of chemically-controlled protein switches” (Nature Communications, 2021)
“And” between values parts separate entries of the source, which are not always exact repeats. Equal values may be shown once. Read-outs that look alike come from different tables or passages of the source.

How the values were obtained:
[1] = system: JAK/STAT pathway SEAP expression in HEK293T cells; assay: CDH-GEMS receptor signaling SEAP assay; format: cell-based; settings: Suppl Fig 9d
Description: To test modularity and performance robustness of the CDHs in different molecular contexts, we inserted these modules in the generalizable extracellular molecule sensor (GEMS) receptor signaling pathway platform[24] and built CDH-GEMS. In these constructs the CDHs are localized extracellularly and function as ectodomain switches, fused to the backbone of the erythropoietin receptor, and an intracellular interleukin 6 receptor domain which activates the JAK/STAT pathway (Fig. 3d). The CDH-GEMS trigger the activation of the JAK/STAT pathway by the dimerization of their subunits. Thus, the drugs are expected to split the CDHs inactivating the signaling pathway as assessed by the expression of the reporter protein SEAP. All three CDH-GEMS were responsive to their respective drugs dynamic response range varied from approximately 6-fold (CDH-2) to 8-fold (CDH-1,3) (Fig. 3e). […] The CDH-GEMS were also reversible upon intermittent drug treatment (Supplementary Fig. 7h, i). Despite that comparisons between CDH-TFs and CDH-GEMS are not straightforward due to differences in the reporter signaling pathways, we observe a general trend for the CDHs to present lower IC50s when used as extracellular modules, which is consistent with overcoming drug permeability issues in cells.
HEK293T cells were maintained in DMEM medium with 10% FBS (Gibco) and Pen/Strep (Thermo Fisher). Cells were maintained and split every two days at around 80% confluence. HEK293T cells were seeded 24 h before transfection, and transfected with the lipofectamine 3000 kit (Thermo Fisher). Plasmids were cotransfected according to the Table S7. For the drug OFF-switch experiments, drugs were added 12 h post transfection and incubated with cells for 24 h before the SEAP detection assay.
Secreted alkaline phosphatase (SEAP) activity (U/L) in cell culture supernatants was quantified by kinetic measurements at 405 nm (1 min/measurement for 30 cycles) of absorbance increase due to phosphatase-mediated hydrolysis of para-nitrophenyl phosphate (pNPP).
Apparent IC50s of SPR drug competition assay were calculated using three-parameter nonlinear regression in GraphPad Prism (Version 8.3.0). Representative data of cellular assays are presented as individual values and mean values (bars). n = 3 refers to biological replicates. All IC50/EC50 values of cellular assays (CDH-TF, CDH-GEMS, AIR-TF and AIR-GEMS) reported were calculated using four-parameter nonlinear regression ± s.d.
Supplementary Figure 9: Comparison of ON-state reporter expression of weak affinity variants of LD3 in CDH-1/2-GEMS platform. a) ON-state expression of CDH-1-GEMS with LD3 and LD3_v3. b) Drug dose-dependent responses in engineered cells determined for the CDH-1-GEMS with LD3 and LD3_v3. c) ON-state expression of CDH-2-GEMS with LD3 and LD3_v3. d) Drug dose-dependent responses in engineered cells determined for the CDH-2-GEMS with LD3 and LD3_v3. In the data shown HEK293T cells were […]
quantification was done 24 hours after drug treatment. a, c) The bar charts show the mean ± s.d. of n = 3 biologically independent samples overlaid with a scatter dot plot of the original data points. b, d) Each […]
parameter nonlinear regression.
(1 picture or pasted object on this page, not shown here)

[2] = system: SEAP expression in HEK293T cells; assay: MISO designer cells (CDH-1 + CDH-3 dual switches); format: cell-based; parameters: SEAP / Bottom (best-fit value) / Top (best-fit value) / Span (best-fit value): unit not given here; settings: for logIC50 (best-fit value): drug in nM; for SEAP, Drug-3 turn OFF CDH-3-TF (with 1 µM Drug-1): Fig S13f; for SEAP, Drug-3 turn OFF CDH-3-GEMS (+1 µM Drug-3): Fig S13g, representative data; for IC50: Homo sapiens, HEK-293T, read-out: IC50 (best-fit value)
Description: Fig. 5 Orthogonal chemical switches enable implementation of multi-input multi-output control modes in mammalian cells. a Scheme of multi-inputs multi-outputs (MIMO) designer cells where two drugs control two different outputs. b, c Cells were co-transfected with AIR-1/2-GEMS and CDH-3-TF regulate SEAP and Luciferase expression, respectively. […] AIR-1/2-GEMS coupled with SEAP expression circuits were co-transfected with CDH-1/2-TF circuits which control the Luciferase production. Respective drug concentrations ranged from 0.001 nM to 1 µM. […]
We then engineered MISO cells (Fig. 5d) with CDH-1-TF and CDH-3-TF dual switches (Fig. 5e) that encode OFF behaviors controlled by Drug-1 and Drug-3. […] This output behavior is distinct from the typical SISO systems which only show two persistent states (high, low) (Fig. 2c, f). […] This type of output in biological systems could be utilized to produce graded levels of responses that are robust to minor oscillations in drug concentrations, and could be used to dissect fundamental biological processes but also to provide persistent response levels in translational applications.
1-TF and CDH-3-TF circuits. Drug-1 concentrations ranged from 0.001 nM to 1 µM (left) and 1 µM Drug-1 with serial diluted Drug-3 from 0.001 nM to 1 µM (right). g) Quantification of SEAP activity controlled […]
by CDH-1-GEMS and CDH-3-GEMS circuits. […]
Luciferase production (l). b-k) Each data point represents the mean of n = 3 biological replicates, and the dose-dependent curve were fitted using four-parameter nonlinear regression.

[3] = Fig5e SEAP, CDH-3-TF, four-parameter fit
[4] = Fig5f SEAP, CDH-3-GEMS, three-parameter fit

CC1(C)CCC(CN2CCN(c3ccc(C(=O)NS(=O)(=O)c4ccc(NCC5CCOCC5)c([N+](=O)[O-])c4)c(Oc4cnc5[nH]ccc5c4)c3)CC2)=C(c2ccc(Cl)cc2)C1 [Drug-2, Venetoclax]
SEAP % ([1]; Bcl2:LD3, 0.001 nM): 300.653% and 318.178% and 392.457% | SEAP % ([1]; Bcl2:LD3, 0.01 nM): 308.454% and 345.509% and 340.557% | SEAP % ([1]; Bcl2:LD3, 0.1 nM): 274.777% and 330.791% and 315.073% | SEAP % ([1]; Bcl2:LD3, 1 nM): 266.802% and 312.808% and 313.179% | SEAP % ([1]; Bcl2:LD3, 10 nM): 230.526% and 261.334% and 264.64% | SEAP % ([1]; Bcl2:LD3, 50 nM): 182.557% and 182.048% and 191.603% | SEAP % ([1]; Bcl2:LD3, 100 nM): 137.415% and 148.555% and 171.413% | SEAP % ([1]; Bcl2:LD3, 500 nM): 103.855% and 121.158% and 118.471% | SEAP % ([1]; Bcl2:LD3, 1000 nM): 85.4687% and 78.7046% and 88.4921% | SEAP % ([1]; Bcl2:LD3_v3, 0.001 nM): 435.755% and 579.505% and 634.353% | SEAP % ([1]; Bcl2:LD3_v3, 0.01 nM): 426.219% and 513.058% and 543.118% | SEAP % ([1]; Bcl2:LD3_v3, 0.1 nM): 389.885% and 497.895% and 507.442% | SEAP % ([1]; Bcl2:LD3_v3, 1 nM): 349.489% and 416.083% and 425.558% | SEAP % ([1]; Bcl2:LD3_v3, 10 nM): 179.661% and 237.904% and 242.508% | SEAP % ([1]; Bcl2:LD3_v3, 50 nM): 112.482% and 132.539% and 150.605% | SEAP % ([1]; Bcl2:LD3_v3, 100 nM): 97.6884% and 119.034% and 118.118% | SEAP % ([1]; Bcl2:LD3_v3, 500 nM): 69.1684% and 95.9179% and 92.604% | SEAP % ([1]; Bcl2:LD3_v3, 1000 nM): 52.9029% and 66.0602% and 70.7894%

COc1cc2c(cc1OC(C)C)[C@H](c1ccc(Cl)cc1)N(c1ccc(N(C)C[C@H]3CC[C@H](N4CCN(C)C(=O)C4)CC3)cc1)C(=O)C2 [Drug-3, NVP-CGM097]
Bottom (best-fit value) [2, 3]: 17.47 | HillSlope (best-fit value) [2, 3]: -0.6148 | Span (best-fit value) [2, 3]: 17.06 | Top (best-fit value) [2, 3]: 34.53 | logIC50 (best-fit value) [2, 3]: 1.333 | SEAP ([2]; Fig5e, turn OFF CDH-3-TF, 0.001 nM): 33.8408 and 34.0469 and 34.3351 | SEAP ([2]; Fig5e, turn OFF CDH-3-TF, 0.01 nM): 29.7183 and 31.0605 and 34.2655 | SEAP ([2]; Fig5e, turn OFF CDH-3-TF, 0.1 nM): 37.5532 and 35.9265 and 39.0056 | SEAP ([2]; Fig5e, turn OFF CDH-3-TF, 1 nM): 35.3902 and 29.1113 and 33.3839 | SEAP ([2]; Fig5e, turn OFF CDH-3-TF, 10 nM): 29.3646 and 23.7323 and 25.8725 | SEAP ([2]; Fig5e, turn OFF CDH-3-TF, 100 nM): 25.079 and 20.2253 and 26.0755 | SEAP ([2]; Fig5e, turn OFF CDH-3-TF, 1000 nM): 15.9296 and 18.8913 and 19.9566 | Bottom (best-fit value) [2, 4]: 53.47 | Span (best-fit value) [2, 4]: 48.26 | Top (best-fit value) [2, 4]: 101.7 | logIC50 (best-fit value) [2, 4]: 0.4646 | SEAP ([2]; Fig5f, turn OFF CDH-3-GEMS, 0.001 nM): 113.362 and 89.612 and 99.5052 | SEAP ([2]; Fig5f, turn OFF CDH-3-GEMS, 0.01 nM): 121.028 and 91.7365 and 92.479 | SEAP ([2]; Fig5f, turn OFF CDH-3-GEMS, 0.1 nM): 104.447 and 97.6051 and 99.9447 | SEAP ([2]; Fig5f, turn OFF CDH-3-GEMS, 1 nM): 100.353 and 82.6179 and 86.7829 | SEAP ([2]; Fig5f, turn OFF CDH-3-GEMS, 10 nM): 58.8118 and 64.1853 and 65.9179 | SEAP ([2]; Fig5f, turn OFF CDH-3-GEMS, 100 nM): 45.2413 and 57.2529 and 77.3068 | SEAP ([2]; Fig5f, turn OFF CDH-3-GEMS, 1000 nM): 32.455 and 54.8353 and 61.4484 | SEAP, Drug-3 turn OFF CDH-3-TF (with 1 µM Drug-1) ([2]; Drug-3 0.001 nM with 1 µM Drug-1): 20.0495 U/L and 20.062 U/L and 15.0342 U/L | SEAP, Drug-3 turn OFF CDH-3-TF (with 1 µM Drug-1) ([2]; Drug-3 0.01 nM with 1 µM Drug-1): 17.0461 U/L and 19.1502 U/L and 14.3967 U/L | SEAP, Drug-3 turn OFF CDH-3-TF (with 1 µM Drug-1) ([2]; Drug-3 0.1 nM with 1 µM Drug-1): 19.7901 U/L and 16.3361 U/L and 16.2198 U/L | SEAP, Drug-3 turn OFF CDH-3-TF (with 1 µM Drug-1) ([2]; Drug-3 1 nM with 1 µM Drug-1): 20.2218 U/L and 16.2578 U/L and 17.1111 U/L | SEAP, Drug-3 turn OFF CDH-3-TF (with 1 µM Drug-1) ([2]; Drug-3 10 nM with 1 µM Drug-1): 16.1201 U/L and 11.9157 U/L and 15.1062 U/L | SEAP, Drug-3 turn OFF CDH-3-TF (with 1 µM Drug-1) ([2]; Drug-3 100 nM with 1 µM Drug-1): 12.136 U/L and 6.982 U/L and 12.7567 U/L | SEAP, Drug-3 turn OFF CDH-3-TF (with 1 µM Drug-1) ([2]; Drug-3 1000 nM with 1 µM Drug-1): 12.5352 U/L and 7.0164 U/L and 6.482 U/L | SEAP, Drug-3 turn OFF CDH-3-GEMS (+1 µM Drug-3) ([2]; Drug-3 0.001 nM + 1 µM Drug-3): 32.0934 U/L and 36.9962 U/L and 29.2725 U/L | SEAP, Drug-3 turn OFF CDH-3-GEMS (+1 µM Drug-3) ([2]; Drug-3 0.01 nM + 1 µM Drug-3): 28.8246 U/L and 27.8451 U/L and 33.3513 U/L | SEAP, Drug-3 turn OFF CDH-3-GEMS (+1 µM Drug-3) ([2]; Drug-3 0.1 nM + 1 µM Drug-3): 25.7325 U/L and 31.532 U/L and 32.3299 U/L | SEAP, Drug-3 turn OFF CDH-3-GEMS (+1 µM Drug-3) ([2]; Drug-3 1 nM + 1 µM Drug-3): 22.1832 U/L and 28.8305 U/L and 36.3315 U/L | SEAP, Drug-3 turn OFF CDH-3-GEMS (+1 µM Drug-3) ([2]; Drug-3 10 nM + 1 µM Drug-3): 20.2059 U/L and 25.0579 U/L and 21.1125 U/L | SEAP, Drug-3 turn OFF CDH-3-GEMS (+1 µM Drug-3) ([2]; Drug-3 100 nM + 1 µM Drug-3): 19.7003 U/L and 17.1154 U/L and 24.8794 U/L | SEAP, Drug-3 turn OFF CDH-3-GEMS (+1 µM Drug-3) ([2]; Drug-3 1000 nM + 1 µM Drug-3): 16.9947 U/L and 17.5781 U/L and 20.7969 U/L | IC50 ([2]; Fig5e SEAP, turn OFF CDH-3-TF, four-parameter fit): 21.5 nM | IC50 ([2]; Fig5f SEAP, turn OFF CDH-3-GEMS, three-parameter fit): 2.92 nM
